Literature values, collected in patent US7858334B2, “Degradation of hydrophobic ester pesticides and toxins” (priority 2002, dated 2010).

## CC1(C)C(C=C(Cl)Cl)C1C(=O)OCc1cccc(Oc2ccccc2)c1 (racemic) [permethrin, 3-phenoxybenzyl(1RS)-cis, trans-3-(2,2-dichlorovinyl)-2,2-dimethylcyclopropane carboxylate]
  published solubility in aqueous solution: 0.5 µM
